Measurements published in US6812256B2, “Polysubstituted indan-1-ol systems for the prophylaxis or treatment of obesity” (Aventis Pharma Deutschland GmbH, priority 2001, dated 2004).

Test system: female NMRI mice
Assay: Anorectic action: cumulative milk consumption after 24 h removal of feed
Format: in vivo
Details: 30 mg/kg i.p.
Method: The anorectic action was tested on female NMRI mice. After removal of feed for 24 hours, the preparation to be tested was administered intraperitoneally (i.p.) or by gavage (po). The animals were housed singly and, with free access to drinking water, they were offered evaporated milk 30 minutes after administration of the preparation. The consumption of evaporated milk was determined and the general behavior of the animals was monitored every half an hour for 7 hours. The measured milk consumption was compared to that of vehicle-treated control animals.

CC1(O)c2ccc(Cl)cc2CC1(F)S(C)(=O)=O (centres unmarked) [Example 1, 5-Chloro-2-fluoro-2-methanesulfonyl-1-methyl-indan-1-ol]
Reduction in cumulative milk consumption as % of the control (compared with control animals): 25% | cumulative milk consumption by treated animals (feed removed for 24 h, evaporated milk offered 30 min after administration, monitored for 7 hours): 4/2.88 ml
